Where two headings read alike, the source gives them in different places.

Assay [1] has as its target OT-I TCR. The assay can be described thus: SPR steady-state binding of soluble OT-I TCR to immobilised pMHC (H-2Kb) at 37 °C: apparent and active KD. More on the design: species or system mouse.
Assay [2] relates to OT-I T cells from transgenic mice. More on the design: method as in Hogquist 1995. The following applies: relative to OVA (N4) = 1; ref Hogquist 1995; cited from earlier work.
The target of assay [3] is OT-I TCR. The following applies: ref Alam 99, cited from earlier work.
Assay [4] concerns naive CD8+ T cells from OT-I transgenic mice. The note with it: 2D affinity AcKa; ref Huang 2010; cited from earlier work. The text has this:
This striking observation spur ...

For assay [5], the target named is OT-I TCR. The following applies: file OT1 Discrimination Published Original KD; repeated per study block; ref Alam 99, Rosette; cited from earlier work. The text has this:
Supplement 44318_2025_644_MOESM7_ESM.zip/OT1 Discrimination Published Original KD.csv, table

Another assay relates to naive OT-I splenocytes. The note with it: relative to OVA (N4) = 1; ref Huang 2010; cited from earlier work.
Assay [6] deals with OT-I TCR. The note with it: 25 °C; ref Alam 95; read-out: Original KD, Alam 95 25ºC; cited from earlier work. The text has this:
Supplement 44318_2025_644_MOESM5_ESM.zip/KDs - Original vs Revised column.xlsx, sheet "KDs - Original vs Revised colum" | column: Original KD from indicated studies in columns

The subject of assay [7] is pre-selection OT-I double-positive thymocytes. The arrangement: method as in Daniels 2006. The following applies: relative to OVA (N4) = 1; ref Daniels 2006; cited from earlier work.
Assay [8] addresses OT-I TCR. The assay can be described thus: SPR binding of OT-I TCR to inactive (denatured or unfolded) pMHC, Bmax constrained to pMHC immobilisation level. The arrangement: species or system mouse. The following applies: unit not printed in the file (text: µM), read-out: KD for inactive pMHC, single experiment.
Target sequence in this assay (as listed by the source): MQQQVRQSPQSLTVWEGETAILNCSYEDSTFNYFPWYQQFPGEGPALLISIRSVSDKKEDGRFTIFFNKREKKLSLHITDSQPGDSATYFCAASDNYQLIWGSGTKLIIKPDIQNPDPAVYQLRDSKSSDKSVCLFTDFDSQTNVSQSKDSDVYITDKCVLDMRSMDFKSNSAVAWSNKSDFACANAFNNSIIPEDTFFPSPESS
Target sequence in this assay (as listed by the source): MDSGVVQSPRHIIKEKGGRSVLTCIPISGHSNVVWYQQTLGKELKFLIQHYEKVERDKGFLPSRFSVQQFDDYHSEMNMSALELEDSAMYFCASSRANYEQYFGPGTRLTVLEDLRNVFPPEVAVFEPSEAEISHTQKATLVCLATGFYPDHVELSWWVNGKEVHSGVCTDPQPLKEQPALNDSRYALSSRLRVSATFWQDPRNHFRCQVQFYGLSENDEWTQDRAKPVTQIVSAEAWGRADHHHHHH
Assay [9] addresses OT-I TCR. More on the design: method as in Stepanek et al, 2014. The following applies: SPR equilibrium binding analysis, 25 °C, mean of two independent replicates; ref Stepanek et al, 2014; cited from earlier work.
Assay [10] concerns CD8+ Jurkat cells expressing the OT-I TCR. More on the design: method as in Lo 2019. The following applies: relative to OVA (N4) = 1; ref Lo 2019; cited from earlier work.
The test system of assay [11] is naive or anergic mouse OT-I CD8+ T cells. More on the design: method as in 2 sources, ref Lo et al, 2023 ||| ref Lo 2023. The note with it: relative to OVA (N4) = 1; values with * excluded; ref Lo 2023; cited from earlier work.
Another assay has as its system OT-I T cells. More on the design: method as in Zehn 2009. The note with it: relative to OVA (N4) = 1; ref Zehn 2009; cited from earlier work.
Assay [12] concerns the target VSV pMHC: […] on H-2K^b with human beta-2 microglobulin (mouse | human | not stated). The assay can be described thus: SPR. In general terms: SPR reads the build-up and loss of mass on a sensor chip optically.
[13] abbreviates: replicate 1 (1st value of the list in KD_active_calculated.csv), 37 °C, unit not given in the file (Table 1: µM), read-out: KD active, single SPR experiment.
Where [14] appears, read: replicate 2 (2nd value of the list), 37 °C, unit inferred, read-out: KD active, single SPR experiment.
The mark [15] stands for this setting: replicate 3 (3rd value of the list), 37 °C, unit inferred, read-out: KD active, single SPR experiment.
Setting [16] is: 25 °C, read-out: Original KD, Alam 99 (25ºC).
[17] abbreviates: replicate 4 (4th value of the list), 37 °C, unit inferred, read-out: KD active, single SPR experiment.
[18] abbreviates: replicate 5 (5th value of the list), 37 °C, unit inferred, read-out: KD active, single SPR experiment.
Setting [19] is: replicate 6 (6th value of the list), 37 °C, unit inferred, read-out: KD active, single SPR experiment.
Where [20] appears, read: 37 °C, * excluded values, because kinetics showed biphasic behaviour, read-out: Original KD, Alam 99 (37ºC).
The mark [21] stands for this setting: SPR, single repeats, read-out: KDs active.

Turning to ATLVFHNL [Stat3], the Kd on OT-I TCR [1] (setting [13]) is 2270 µM; on OT-I TCR [1] (setting [14]), 4730 µM; at OT-I TCR [1] (setting [15]), 3740 µM.

Take EIINFEKL [Peptide E1]: the “Potency, Hogquist 1995” value in [2] was 5010000. For the same substance, the Kd is 20.3 µM on OT-I TCR [3] (setting [16]); 20.3 µM at OT-I TCR [5]; 2800 µM on OT-I TCR [1] (setting [14]); 12400 µM at OT-I TCR [1] (setting [15]); 3870 µM at OT-I TCR [1] (setting [17]); 3520 µM on OT-I TCR [1] (setting [18]). Besides, the Kd on OT-I TCR [1] (setting [19]) is 2180 µM; at OT-I TCR [1] (replicate 7 (7th value of the list), 37 °C, unit inferred, read-out: KD active, single SPR experiment) it was 2320 µM; at OT-I TCR [1] (replicate 8 (8th value of the list), 37 °C, unit inferred, read-out: KD active, single SPR experiment), 3030 µM; at OT-I TCR [1] (replicate 9 (9th value of the list), 37 °C, unit inferred, read-out: KD active, single SPR experiment), 7240 µM; at OT-I TCR [1] (replicate 10 (10th value of the list), 37 °C, unit inferred, read-out: KD active, single SPR experiment), 2140 µM; at OT-I TCR [6] it was 22.6 µM. The “2D Huang 37¼C (AcKa)” value in assay [4] is given as 0.0000054. Besides, in the assay with naive OT-I splenocytes, the “Potency, Huang 2010” value is reported as 167000. The “Potency, Daniels 2006” value in assay [7] is given as 56524.

Regarding “RGYNYEKL [V-OVA, its pMHC is not correctly folded]”, the Kd at OT-I TCR [3] (setting [16]) was 18.2 µM; at OT-I TCR [3] (setting [20]) it was 12.7 µM; on OT-I TCR [5], 19 µM; at OT-I TCR [8] (replicate 1 (first line of Denatured KD.csv)), 1560 µM; on OT-I TCR [8] (replicate 2 (second line of Denatured KD.csv)), 2630 µM; at OT-I TCR [6], 29.8 µM. In assay [4], the “2D Huang 37¼C (AcKa)” value was 0.0000029. Further, in the assay with naive OT-I splenocytes, the “Potency, Huang 2010” value is 417000.

As to RTYTYEKL [Catnb], the Kd on OT-I TCR [1] (setting [21]) is 2040 µM; at OT-I TCR [1] (setting [13]), 2040 µM; at OT-I TCR [1] (setting [14]), 1880 µM; at OT-I TCR [1] (setting [15]), 1900 µM; at OT-I TCR [1] (setting [17]) it was 2040 µM; at OT-I TCR [1] (setting [18]), 1950 µM. Further, on OT-I TCR [1] (setting [19]), the Kd came to 2380 µM.

On to SIAAFASL [Null], for which the Kd on OT-I TCR [1] (setting [13]) was 4610 µM; at OT-I TCR [1] (setting [14]) it was 3520 µM; on OT-I TCR [1] (setting [15]), 2350 µM.

As for SIIEFEKL [Peptide E4], the Kd at OT-I TCR [9] is > 1000 µM; at OT-I TCR [1] (setting [13]) it was 3370 µM; at OT-I TCR [1] (setting [14]) it was 4000 µM; at OT-I TCR [1] (setting [15]), 2730 µM.

Turning to SIIRFEKL [Peptide R4], the Kd was 40.1 µM on OT-I TCR [3] (setting [16]); 26.9 µM on OT-I TCR [3] (setting [20]); 40.1 µM on OT-I TCR [5]; 4270 µM on OT-I TCR [1] (setting [21]); 4270 µM on OT-I TCR [1] (repeat 3, read-out: Revised KDs (This Study)); 4270 µM at OT-I TCR [1] (repeat 6, read-out: Revised KDs (This Study)). Besides, the Kd on OT-I TCR [1] (setting [13]) was 7640 µM; on OT-I TCR [1] (setting [14]), 3760 µM; at OT-I TCR [1] (setting [15]) it was 4270 µM; on OT-I TCR [1] (setting [17]), 5030 µM; on OT-I TCR [1] (setting [18]) it was 6430 µM; on OT-I TCR [1] (setting [19]), 4280 µM. Moreover, at OT-I TCR [6], the Kd is 57.1 µM. The “2D Huang 37¼C (AcKa)” value in [4] is reported as 0.0000017. Moreover, the “Potency, Huang 2010” value in the assay with naive OT-I splenocytes is listed as 167000.

For SIIQFERL [Peptide Q4R7], the Kd at OT-I TCR [9] is 288 µM; at OT-I TCR [1] (setting [13]), 184 µM; on OT-I TCR [1] (setting [14]), 273 µM; on OT-I TCR [1] (setting [15]), 317 µM. Also, in assay [10], the “Potency, Lo 2019” value is 3.464. Besides, in assay [11], the “Potency, Lo 2023” value is given as 14.78. In [7], the “Potency, Daniels 2006” value is given as 81.

With SIIVFEKL [Peptide V4], the Kd at OT-I TCR [9] is > 1000 µM; on OT-I TCR [1] (setting [13]), 907 µM; on OT-I TCR [1] (setting [14]), 791 µM; at OT-I TCR [1] (setting [15]) it was 628 µM; at OT-I TCR [1] (setting [17]) it was 879 µM. Besides, in [11], the “Potency, Lo 2023” value was 2016. For the same substance, the “Potency, Zehn 2009” value in the assay on OT-I T cells is given as 680.

For ISFKFDHL [Cappa1], the Kd on OT-I TCR [1] (setting [13]) is 2470 µM; at OT-I TCR [1] (setting [14]), 6920 µM; at OT-I TCR [1] (setting [15]), 9740 µM; on OT-I TCR [1] (setting [17]) it was 3280 µM; on OT-I TCR [1] (setting [18]), 2800 µM; at OT-I TCR [1] (setting [19]) it was 2530 µM.

Take VGPRYTNL [Mapk1]: the results for the Kd at OT-I TCR [1] (setting [14]), on OT-I TCR [1] (setting [15]) and on OT-I TCR [1] (setting [17]) were 4240 µM, 1810 µM and 2010 µM, respectively.

“OT-I TCR (soluble; murine variable domains, human constant domains, artificial interchain disulphide)” yielded a Kd in assay [12] of 1580 µM.

As for SIIKFEKL [Peptide K4], the results for the Kd at OT-I TCR [1] (setting [13]), on OT-I TCR [1] (setting [14]) and at OT-I TCR [1] (setting [15]) were 2710 µM, 3290 µM and 2190 µM, respectively.

These data come from publication PMC12811252 (The EMBO Journal, 2025).
